Results as given in publication PMC6522524 (Nature Communications, 2019).
Where “and” joins values, the source holds several entries; their conditions need not be identical. Equal values may be shown once. Read-outs that look alike come from different tables or passages of the source.

Columns and labels:
[1] = target: HBV core protein Y118F mutant in Huh-7 cells (Hepatitis B virus genotype C, UniProt P0C6H6, Y118F); assay: Intracellular HBV capsid assembly, Huh-7 cells transfected with pCDNA3-Core Y118F; format: cell-based
Sequence of HBV core protein Y118F mutant in Huh-7 cells (P0C6H6 whole entry Y118F, looked up): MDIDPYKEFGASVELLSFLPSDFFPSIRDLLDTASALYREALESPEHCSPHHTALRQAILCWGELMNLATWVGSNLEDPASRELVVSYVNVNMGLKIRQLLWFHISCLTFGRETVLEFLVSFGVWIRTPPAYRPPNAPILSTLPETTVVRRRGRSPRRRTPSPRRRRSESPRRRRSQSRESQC

HepG2.2.15 cells = conditions: 0.1–10 μM, 6 days
[2] = system: total HBV core protein in Huh-7 cells; format: cell-based, Hepatitis B virus
Protocol: the indicated times. The cells were lysed and assembled HBV core particles were isolated by sucrose step-gradient ultracentrifugation, resolved on 1 % agarose gels, and subjected to immunoblot analysis with anti-HBV core antibody. Total intracellular HBV core protein was also determined by immunoblot analysis in the cell lysates. Core mRNA levels were measured by quantitative RT-PCR. The data

[3] = system: HBV replicative plasmid pAAV-HBV1.2× in C57BL/6 mice; assay: Hydrodynamic injection mouse model (pAAV-HBV1.2×, C57BL/6 mice); format: in vivo
[4] = system: HBV pgRNA/precore RNA in HepG2.2.15 cells; format: cell-based, Hepatitis B virus
Protocol: Fig. 1 Effect of FDA-approved compounds on HBV replication. a Schematic depiction of the primary screening analysis. HepG2.2.15 cells, which were stably transfected with HBV replicons, were treated with 978 FDA-approved drugs (1 μM) for 3 days. Entecavir (ETV) (1 μM) served as positive control. […] Quantitative RT-PCR was performed after 6 days of incubation. d Effect of the 19 candidates on intracellular HBV capsid assembly. Huh-7 cells were transfected with pCDNA3-Core and exposed after 12 h to the 19 candidates (1 μM) for 36 h. The cells were lysed and assembled HBV core particles were isolated by sucrose step gradient ultracentrifugation, resolved on 1% agarose gels, and subjected to immunoblot analysis with anti-HBV core antibody.
(§1) Quantitative RT-PCR with primers that detect three HBV regions (R1, R2, and R3, Supplementary Table 1) was used to measure HBV transcription. This RT-PCR detects pgRNA and precore RNA (3.5 kB), two HBV surface-encoding RNAs (2.5 kB and 2.1 kB), and HBx-encoding RNA (0.7 kB)[55]. PCR conditions were 95 °C for 10 min initially, then 50 cycles of 95 °C for 30 s, 60 °C for 60 s and 72 °C for 30 s, and finally 1 cycle of 95 °C for 60 s, 55 °C for 30 s and 95 °C for 30 s.
a Schematic depiction of the R1, R2, and R3 regions of the HBV genome that were targeted by
quantitative RT-PCR to quantitate the transcription of pgRNA, two HBV surface RNAs, and HBx RNA.
pGL3/HBV pgRNA promoter or pGL3/HBV sRNA promoter. The data shown in (b – d) represent two

[5] = system: intracellular HBV DNA in HepG2.2.15 and HBV 1.2X adr transfected HepG2 cells; assay: Southern blot analysis of intracellular HBV DNA; format: cell-based, Hepatitis B virus; conditions: Fig. 4c
Description: HBV DNA was separated on a 1% agarose gel, blotted onto a nylon membrane (Hybond N + , RPN203B, GE Healthcare), and hybridized with a biotin-labeled full length HBV fragment prepared with the BioPrime™ DNA labeling system (18094011, ThermoFisher).

[6] = system: HBV (ayw subtype, genotype D) replicon in HepG2.2.15 cells; assay: microbe, parasite or virus in culture; format: cell-based, Hepatitis B virus; conditions: Hepatitis B virus
[7] = system: HBV (pHBV1.2× adr) in transfected HepG2 cells; assay: microbe, parasite or virus in culture; format: cell-based, Hepatitis B virus; conditions: Hepatitis B virus, HepG2, 144 h; HBV1.2× adr transfected cells, 6 days; read-out: IC50, intracellular HBV DNA
[8] = system: HBV transcripts in HepG2 cells transfected with pHBV1.2×; assay: HBV transcription in HepG2 cells transfected with pHBV1.2×, quantitative RT-PCR; format: cell-based, Hepatitis B virus
Protocol: as §1, with “s. […]” for “s.”
a Schematic depiction of the R1, R2, and R3 regions of the HBV genome that were targeted by quantitative RT-PCR to quantitate the transcription of pgRNA, two HBV surface RNAs, and HBx RNA. […]
c Region 3 transcription in ciclopirox-treated (b) HepG2.2.15 cells and (c) HepG2 cells transfected with the pHBV1.2× plasmid. d The promoter analysis of ciclopirox-treated HepG2 cells transfected with pGL3/HBV pgRNA promoter or pGL3/HBV sRNA promoter. The data shown in (b – d) represent two

[9] = system: HBV cccDNA in Huh-7-NTCP cells; assay: In vitro HBV infection model, Huh-7-NTCP cells: intracellular cccDNA
Protocol: HepG2 and Huh-7 cells permanently expressing NTCP were generated by infecting them with an NTCP-encoding recombinant retrovirus and isolating GFP-expressing cells.
The isolated intracellular HBV DNA was subjected to PCR with an HBV DNA primer and probe set (Supplementary Table 1). cccDNA was isolated by the Hirt extraction method[54]. Briefly, the cells were lysed in SDS lysis buffer (50 mM Tris-HCl, pH 8.0, 10 mM EDTA, 150 mM NaCl, 1% SDS), and the lysates were mixed with KCl to a final concentration of 0.5 M. After incubation at 4 °C for 30 min, each lysate was centrifuged and the supernatant was extracted three times with phenol and once with chloroform. The DNA was then recovered by ethanol precipitation, and treated with T5 nuclease (10 U per μg for 0.5 h, M0363, New England Biolabs), and the enzyme was subsequently heat-denatured at 70 °C. The isolated cccDNA was subjected to PCR with a cccDNA primer and probe set (Supplementary Table 1).
HepG2-NTCP and Huh-7-NTCP cells were cultured in 12-well plates with the indicated compound(s) for 4 h, after which the cells were infected with HBV particles (10^7 viral genome equivalent per mL, genotype D) and treated with the indicated compound(s) for another 16 h. […]
Quantitative PCR with an HBV DNA primer and probe set was used to measure intracellular
cccDNA. The data are expressed as means ± SDs. […]

[10] = system: HepG2 cells transfected with pHBV1.2×; conditions: 0.1–10 μM, 6 days
[11] = system: HBsAg in HepG2 cells transfected with pHBV1.2×; assay: Secreted HBsAg ELISA, HepG2 cells transfected with pHBV1.2×; format: cell-based, Hepatitis B virus
Protocol: Secreted HBsAg (f, i respectively) was quantified by ELISA.
An HBsAg ELISA kit (KA0286, Abnova) was used to quantify HBsAg protein. Briefly, culture media were incubated in individual wells of the capture plates for 2 h. After washing, horseradish peroxidase-labeled rabbit anti-HBV surface antibody was added, followed by incubation for an additional 2 h. The substrate solution was added for 15–60 min and absorbance at 450 nm was measured.

[12] = ref https://www.drugbank.ca/; cited from earlier work
[13] = system: HBV rcDNA in HepG2-NTCP cells; assay: In vitro HBV infection model, HepG2-NTCP cells: intracellular HBV rcDNA
Protocol: To isolate the secreted HBV DNA, culture media were collected and centrifuged at 15,000 × g to remove debris. The medium was diluted 1:1 with phosphate-buffered saline (PBS), and 1 M NaOH solution was added to a final concentration of 0.1 M. The mixture was incubated at 37 °C for 1 h. Protein was denatured by adding 2 M Tris-HCl (pH 7.5) solution to a final concentration of 0.2 M and incubating the mixture at 98 °C for 5 min. The protein precipitate was removed by centrifugation at 15,000 × g, and the supernatant was subjected to PCR with an HBV DNA primer and probe set (Supplementary Table 1). […] To isolate intracellular HBV DNA, the cells were lysed on ice with lysis buffer (50 mM Tris-HCl, pH 7.5, 1 mM EDTA, 1% NP40) for 10 min. After removing cell debris and nuclei by centrifugation at 15,000 × g, the supernatant was treated with micrococcal nuclease (0.25 U per μL, M0247, New England Biolabs) at 37 °C for 1 h. The micrococcal nuclease was then inactivated by adding EGTA to a final concentration of 10 mM. Thereafter intracellular HBV DNA was extracted with a G-spin^TM total kit (17046, Intron). The isolated intracellular HBV DNA was subjected to PCR with an HBV DNA primer and probe set (Supplementary Table 1). cccDNA was isolated by the Hirt extraction method[54]. […]

[14] = 5 mg per kg oral daily, by day 5
[15] = HepG2.2.15, 144 h, read-out: Relative secreted HBV DNA level (Folds), AVERAGE
[16] = HepG2.2.15, 144 h, read-out: Relative secreted HBV DNA level (Folds), individual samples

With Cc1cc(C2CCCCC2)n(O)c(=O)c1 [Ciclopirox, 6-cyclohexyl-1-hydroxy-4-methyl-2(1 H)-pyridone] the “reduction in sensitivity of Y118F compared with the wild-type” value [1] was “approximately 4 fold”, the “cytotoxicity” value (HepG2.2.15 cells) was “no significant cytotoxicity” and the “Total denatured HBV core protein” value ([2]; 36 h) was “not affected”. The total core protein ([2]; treatment time increased) was “decreased”, the “HBV core protein levels in the liver” value [3, 14] was “reduced HBV core protein levels in the liver” and the “serum HBV DNA levels” value [3, 14] was “significantly lowered serum HBV DNA levels”. The “HBsAg, AVERAGE” value ([3]; mouse, in vivo) was 278.443 ng/mL and 288.165 ng/mL and 304.224 ng/mL and 310.116 ng/mL, the “HBV transcripts levels” value [4] was “no effect” and the “intracellular HBV DNA levels (Southern blot)” value [5] was “reduced intracellular HBV DNA levels in a dose-dependent manner”. The inhibition at 1 µM ([6]; HepG2.2.15, 72 h, read-out: % of inhibition (ETV =100%), initial screening (3days)) was 142%, the inhibition at 1 µM ([6]; HepG2.2.15, 144 h, read-out: % of inhibition (ETV =100%), confirmation (6days)) was 88.6% and the IC50 ([6]; HepG2.2.15, 144 h, read-out: IC50, HBV DNA secretion) was 880 ± 70 nM. It also gave an activity at 0.1 µM [6, 15] of 102%, an activity at 0.2 µM [6, 15] of 81.1% and an activity at 0.5 µM [6, 15] of 52.1%. For the same compound, the activity at 1 µM [6, 15] was 51.6%, the activity at 2 µM [6, 15] was 29.1% and the activity at 5 µM [6, 15] was 23.5%. It also gave an activity at 10 µM [6, 15] of 4.49%, an activity at 0.1 µM [6, 16] of 102% and an activity at 0.2 µM [6, 16] of 83%. The activity at 0.5 µM [6, 16] was 48.1%, the activity at 1 µM [6, 16] was 49.9% and the activity at 2 µM [6, 16] was 29%. For the same compound, the IC50 [7] was 800 ± 180 nM, the “HBV transcripts levels” value [8] was “no effect” and the “cccDNA levels” value [9] was “dropped markedly”. The “cytotoxicity” value [10] was “no significant cytotoxicity”, the “HBsAg production” value [11] was “no effect” and the “pKa value (acidic)” value [12] was 6.84. For the same compound, the “intracellular relaxed circular DNA levels” value [13] was “dropped markedly”.
